In series [1] the target is T1, Solute carrier organic anion transporter family member 1B3 (Homo sapiens, UniProt Q9NPD5).
T1 sequence (Q9NPD5 whole entry): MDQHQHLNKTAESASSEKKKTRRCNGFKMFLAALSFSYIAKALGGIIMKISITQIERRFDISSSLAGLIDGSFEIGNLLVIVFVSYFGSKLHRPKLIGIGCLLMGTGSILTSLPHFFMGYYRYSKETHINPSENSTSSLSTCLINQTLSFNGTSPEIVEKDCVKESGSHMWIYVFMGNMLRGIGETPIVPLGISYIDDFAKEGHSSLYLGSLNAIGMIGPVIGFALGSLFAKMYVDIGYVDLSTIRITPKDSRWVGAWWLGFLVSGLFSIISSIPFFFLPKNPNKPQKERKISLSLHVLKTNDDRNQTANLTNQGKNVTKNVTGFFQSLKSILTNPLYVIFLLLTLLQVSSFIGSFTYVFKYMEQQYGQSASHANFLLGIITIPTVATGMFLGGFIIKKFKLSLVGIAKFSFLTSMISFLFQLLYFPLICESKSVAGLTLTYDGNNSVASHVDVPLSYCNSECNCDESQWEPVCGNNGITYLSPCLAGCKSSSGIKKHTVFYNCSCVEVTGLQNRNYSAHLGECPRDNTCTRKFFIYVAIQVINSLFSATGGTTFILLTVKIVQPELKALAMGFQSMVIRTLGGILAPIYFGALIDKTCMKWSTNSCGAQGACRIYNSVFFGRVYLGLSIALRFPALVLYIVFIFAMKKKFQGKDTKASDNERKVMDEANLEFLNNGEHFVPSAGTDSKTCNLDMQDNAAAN
To be noted: chinese hamster, cho, 10 µM.

Series [2] addresses T2, Solute carrier organic anion transporter family member 1B1 (Homo sapiens, UniProt Q9Y6L6).
T2 sequence (Q9Y6L6 whole entry): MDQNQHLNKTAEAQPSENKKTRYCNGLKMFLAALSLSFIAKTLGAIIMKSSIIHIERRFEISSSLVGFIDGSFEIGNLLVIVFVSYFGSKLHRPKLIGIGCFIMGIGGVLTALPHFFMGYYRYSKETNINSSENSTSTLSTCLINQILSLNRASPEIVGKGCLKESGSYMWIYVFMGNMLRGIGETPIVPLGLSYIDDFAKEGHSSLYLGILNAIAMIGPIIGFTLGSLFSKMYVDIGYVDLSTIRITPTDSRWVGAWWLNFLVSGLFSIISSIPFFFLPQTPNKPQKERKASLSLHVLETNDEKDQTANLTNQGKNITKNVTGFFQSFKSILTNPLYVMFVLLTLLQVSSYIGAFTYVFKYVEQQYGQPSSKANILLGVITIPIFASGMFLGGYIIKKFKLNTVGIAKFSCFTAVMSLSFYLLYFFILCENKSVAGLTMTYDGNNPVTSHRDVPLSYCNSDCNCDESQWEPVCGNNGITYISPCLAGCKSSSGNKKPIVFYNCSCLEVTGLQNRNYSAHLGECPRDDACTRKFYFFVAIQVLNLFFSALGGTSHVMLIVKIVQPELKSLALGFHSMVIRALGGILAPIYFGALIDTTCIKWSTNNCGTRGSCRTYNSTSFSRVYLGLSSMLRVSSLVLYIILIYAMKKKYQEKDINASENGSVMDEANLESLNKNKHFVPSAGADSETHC
The following applies: chinese hamster, cho, 10 µM.

Consider `Cc1cccc(CN2CCN(C(c3ccccc3)c3ccc(Cl)cc3)CC2)c1.Cl.O` (centres undefined), for which the values for the residual activity in series [1] and in series [2] were 79.23% and 80.22%, respectively.

As to `Cl.OCCN1CCN(CCCN2c3ccccc3Sc3ccc(C(F)(F)F)cc32)CC1`, the values for the residual activity in series [1] and in series [2] were 93.03% and 153.1%, respectively.

Turning to `CNC(C)(C)Cc1ccccc1.O=S(=O)(O)O`, the residual activity was determined as 109.4% in series [1] and 107.5% in series [2].

Consider `CCN(CC)CCNC(=O)c1cc(Cl)c(N)cc1OC.Cl`, for which the residual activity in series [1] is 108.2%; in series [2], 84.82%.

As to `CN1CCc2c(c3ccccc3n2Cc2ccccc2)C1.CN1CCc2c(c3ccccc3n2Cc2ccccc2)C1.O=S(=O)(O)c1cccc2c(S(=O)(=O)O)cccc12`, the residual activity was determined as 77.15% in series [1] and 69.52% in series [2].

`COc1cc2c3cc1Oc1cc(ccc1O)C[C@@H]1c4c(cc(OC)c(O)c4Oc4ccc(cc4)C[C@@H]3N(C)CC2)CC[N+]1(C)C.[Cl-]`: the residual activity came out at 110.3% in series [1] and 99.28% in series [2].

Consider `C[C@H]1CC[C@]2(NC1)O[C@H]1C[C@H]3[C@@H]4CC[C@H]5C[C@@H](O)CC[C@]5(C)[C@H]4CC[C@]3(C)[C@H]1[C@@H]2C.Cl`, for which the residual activity in series [1] is reported as 99.59%; in series [2] it was 108.8%.

Regarding `CSCC[C@H](NC=O)C(=O)N[C@@H](CC(C)C)C(=O)N[C@@H](Cc1ccccc1)C(=O)O`, the figures for the residual activity in series [1] and in series [2] were 120.4% and 76.72%, respectively.

Take `CC(=O)Oc1cc2c(c(C)c1OC(C)=O)CC1OC13[C@@]2(C)CC[C@@]1(C)C2C[C@](C)(C(=O)O)CC[C@]2(C)CC[C@]31C` (some centres undefined): the results for the residual activity in series [1] and in series [2] were 37.72% and 63.61%, respectively.

Take `COc1cc(OC)c2c(c1)O[C@H](c1ccc(OC)c(OC)c1)[C@@H](O)C2`: the residual activity stood at 103.7% in series [1] and 123.7% in series [2].

In the case of `c1ccc2c(c1)cc1ccc3cccc4ccc2c1c34`, the residual activity in series [1] came to 70.45%; in series [2], 74.44%.

On to `C=N[C@@H](C(=O)N[C@@H]1C(=O)N2[C@@H]1SC(C)(C)[C@@H]2C(=O)[O-])c1ccccc1.[Na+]`, for which the residual activity in series [1] stood at 54.33%; in series [2], 110.5%.

Turning to `CSCC[C@H](N)C(=O)N[C@@H](CC(C)C)C(=O)N[C@@H](Cc1ccccc1)C(=O)OC(C)=O`, the residual activity in series [1] stood at 94.57%; in series [2], 102.4%.

As for `CC(=O)O[C@H]1CC[C@]2(C)[C@H]3CC[C@@H]4[C@@H]5CC(C)(C)CC[C@]5(C(=O)O)CC[C@@]4(C)[C@]3(C)CC[C@H]2C1(C)C`, the residual activity is given as 103.7% in series [1] and 112.3% in series [2].

Regarding `O=C1CCC[C@@H]2[C@H]3C[C@@H](CN12)[C@@H]1CCCCN1C3.[O-][Cl+3]([O-])([O-])O`, the figures for the residual activity in series [1] and in series [2] were 104.5% and 115.5%, respectively.

Take `CCCCCCCCCCCC[C@@H](C(=O)O)[C@H](C)C(=O)O`: the residual activity in series [1] came to 61.85%; in series [2] it was 76.63%.

Turning to `CC(=O)O[C@H]1CC[C@@]2(C)[C@@H](CC[C@H]3[C@@H]4CC=C(C(C)=O)[C@@]4(C)C(=O)C[C@@H]32)C1`, the residual activity in series [1] was 85.5%; in series [2] it was 81.91%.

For `C[C@]12CC[C@H](Cl)C[C@@H]1CC[C@@H]1[C@@H]2CC[C@]2(C)C(=O)CC[C@@H]12`, the results for the residual activity in series [1] and in series [2] were 70.61% and 67.79%, respectively.

Take `CC(=O)OCC1=C(C(=O)[O-])N2C(=O)[C@@H](NC(=O)CCC[C@@H](N)C(=O)O)[C@H]2SC1.[Na+]`: the residual activity turned out to be 103.2% in series [1] and 89.78% in series [2].

Turning to `CC(=O)O[C@@H]1C[C@H]2C(C)(C)CCC(=O)[C@]2(C)[C@H]2CC[C@@]3(C)[C@H](c4ccoc4)OC(=O)[C@H]4O[C@]43[C@@]21C`, the residual activity in series [1] came out at 105.3%; in series [2], 67%.

Regarding `COC(=O)[C@H]1OC(=O)[C@H]2O[C@]23[C@]2(C)[C@H](CC[C@]13C)[C@]1(C)CCC(=O)C(C)(C)[C@@H]1C[C@H]2OC(C)=O`, the residual activity worked out at 97.12% in series [1] and 32.74% in series [2].

Take `CC(=O)N[C@H]1[C@H]([C@@H](O)[C@H](O)CO)O[C@@](O)(C(=O)O)C[C@@H]1O`: the residual activity in series [1] came out at 91.96%; in series [2], 93.14%.

In the case of `CC(=O)[C@H]1CC[C@H]2[C@@H]3CC(=O)C4=CC(=O)CC[C@]4(C)[C@H]3CC[C@]12C`, the residual activity in series [1] was determined as 75.51%; in series [2], 38.54%.

As for `C[C@@H]1O[C@@H](O[C@H]2[C@H](O[C@H]3CC[C@]4(C)C5CC=C6[C@@H]7CC(C)(C)CC[C@]7(C(=O)O)CC[C@]6(C)[C@]5(C)CC[C@@H]4[C@]3(C)CO)OC[C@H](O)[C@@H]2O)[C@H](O)[C@H](O)[C@H]1O` (some centres undefined), the residual activity in series [1] is listed as 112.9%; in series [2] it was 103.8%.

For `CC1=CC(=O)[C@H]2C(C)(C)CCC[C@]2(C)[C@@]1(O)CCc1ccoc1`, the residual activity was found to be 78.78% in series [1] and 48.25% in series [2].

As to `COc1cc(OC)c2c(c1Cl)O[C@@]1(C(=O)CC(=O)C[C@H]1C)C2=O`, the residual activity in series [1] is recorded as 85.63%; in series [2] it was 81.69%.

As to `CC(=O)O[C@@H]1C[C@H]2C(C)(C)C=CC(=O)[C@@]2(C)[C@H]2CC[C@]3(C)[C@@H](c4ccoc4)OC(=O)[C@H]4O[C@]43[C@]21C`, the results for the residual activity in series [1] and in series [2] were 46.89% and 18.57%, respectively.

Consider `CC(=O)O[C@H]1CC[C@@]2(C)C(=CC[C@@H]3[C@@H]2CC[C@]2(C)C4C(C[C@@H]32)OC2(CCC(C)CO2)[C@H]4C)C1` (some centres undefined), for which the residual activity was 105.4% in series [1] and 111% in series [2].

Consider `COC(=O)[C@@H]1OC(=O)[C@H]2O[C@]23[C@@]2(C)[C@H](CC[C@@]13C)[C@@]1(C)[C@@H](OC(C)=O)C[C@@H](OC(C)=O)C(C)(C)[C@@H]1C[C@@H]2O`, for which the residual activity was found to be 72.87% in series [1] and 66.58% in series [2].

In the case of `CC(=O)O[C@H]1C[C@@H](OC(C)=O)C(C)(C)[C@@H]2CC(=O)[C@]3(C)[C@H](CC[C@@]4(C)[C@H](c5ccoc5)OC(=O)[C@H]5O[C@]543)[C@@]12C`, the residual activity amounted to 72.19% in series [1] and 55.58% in series [2].

Turning to `CC(=O)O[C@H]1CC[C@@]2(C)[C@@H](CC[C@@H]3[C@@H]2CC[C@]2(C)[C@@H]4[C@H](C[C@@H]32)O[C@@]2(CCC(C)CO2)[C@H]4C)C1` (some centres undefined), the residual activity in series [1] is 107.6%; in series [2], 112.3%.

Turning to `CC(=O)O[C@H]1CC[C@]2(C)C3=C(CC[C@H]2C1(C)C)[C@@]1(C)CC[C@H]([C@H](C)CCC=C(C)C)[C@]1(C)CC3`, the residual activity is on record as 40.21% in series [1] and 29.18% in series [2].

Take `OC[C@@H](O)C(O)[C@H](O)CO`: the values for the residual activity in series [1] and in series [2] were 118.8% and 121.4%, respectively.

As to `NC(=O)CN1CCCC1=O`, the residual activity in series [1] is on record as 103.1%; in series [2], 88.77%.

Regarding `CC(=O)Nc1ccc(S(=O)(=O)Nc2ccc([N+](=O)[O-])cc2)cc1`, the residual activity was 88.89% in series [1] and 61.58% in series [2].

On to `Nc1nc(N)c2nc(-c3ccccc3)c(N)nc2n1`, for which the residual activity in series [1] is 69.61%; in series [2], 78.63%.

`N=C(N)c1ccc(OCCCCCOc2ccc(C(=N)N)cc2)cc1.O=S(=O)(O)CCO`: the results for the residual activity in series [1] and in series [2] were 156% and 99.74%, respectively.

In general, residual activity refers to the signal under treatment as a percentage of the control signal.

Source of the values: ChEMBL document CHEMBL3039007, “Structure-based identification of OATP1B1/3 inhibitors” (Mol Pharmacol, 2013).
